Experiment [1] concerns L1210 leukemia. The experiment in a line: L1210 leukemia cell proliferation inhibition (Table I). Particulars: Mus musculus. It counts as cell-based. The text has this:
The biological activity of the compounds of this invention has been further confirmed using well known procedures against L1210 leukemia and the results set forth in Table I. The results were obtained using standard well known procedure (Li, L. H.; Kuentzel, S. L.; Murch, L. L.; Pschigoga, L. M.; and W. C. Krueger, "Comparative biological and biochemical effects of nogalamycin and its analogs on L1210 leukemia," Cancer Res. 39:4816-4822 (1979)). The results are expressed as an IC50 which is the drug concentration required to inhibit cell proliferation to 50% of that of untreated control cells. Lower numbers indicated greater activity.

The subject of experiment [2] is tubulin. Briefly: In vitro tubulin polymerization assay after Gaskin et al. It counts as biochemical. The conditions noted are these: 20° C.; for induction of tubulin polymerization in vitro: compared with taxol. From the text:
(§1) The biological activity of the 7-deoxy-7β,8β-methanotaxol compounds (Formula II) of the invention has been confirmed using well known procedures.
(§2) The biological activity of the 7-deoxy-7-halotaxol compounds (Formula III) of the invention has been confirmed using well known procedures.

In experiment [3] the test system is A2780 (human ovarian carcinoma) cells. The experiment in a line: Cytotoxicity in A2780 (human ovarian carcinoma) cells in culture (IC90). It counts as cell-based. Particulars: read-out: IC90 (90% growth inhibitory concentration).
Description: as §2

Experiment [4] relates to L1210 mouse leukemia carcinoma cells. Briefly: Cytotoxicity in L1210 mouse leukemia carcinoma cells in culture (IC90). It counts as cell-based. The conditions noted are these: read-out: IC90 (90% growth inhibitory concentration).
Description: as §1

Setting [5] is: L1210, drug concentration required to inhibit cell proliferation to 50% of untreated control cells, read-out: L1210 (IC50 μg/ml).
Where [6] appears, read: L1210, read-out: L1210 (IC50 μg/ml).

≈ marks a conversion by molar mass, not a printed value. Like-named read-outs stand apart in the source and are kept apart here. Some results are limits rather than exact numbers.

Turning to `CC(=O)O[C@H]1C(=O)[C@]2(C)C(F)C[C@H]3OC[C@@]3(OC(C)=O)[C@H]2[C@H](OC(=O)c2ccccc2)[C@]2(O)C[C@H](OC(=O)[C@H](OC(=O)OCC(Cl)(Cl)Cl)[C@@H](NC(=O)c3ccccc3)c3ccccc3)C(C)=C1C2(C)C` (stereo partly drawn) [Compound 13AA, 2'-{[(2,2,2-Trichloroethyl)-oxy]carbonyl)-7-deoxy-7-fluorotaxol], the IC50 in experiment [1] (setting [5]) turned out to be 0.054 µg/mL (≈ 0.0524 µM).

As to `CC(=O)O[C@H]1C(=O)[C@]2(C)C(F)C[C@H]3OC[C@@]3(OC(C)=O)[C@H]2[C@H](OC(=O)c2ccccc2)[C@]2(O)C[C@H](OC(=O)[C@H](OC(=O)OCC(Cl)(Cl)Cl)[C@@H](NC(=O)OC(C)(C)C)c3ccccc3)C(C)=C1C2(C)C` (stereo partly drawn) [Compound 13DA, N-Debenzoyl-N-(t-butyl)oxycarbonyl-2'-{[(2,2,2-trichloroethyl)oxy]carbonyl}-7-deoxy-7-fluorotaxol], in experiment [1] (setting [5]), the IC50 was 0.015 µg/mL (≈ 0.0146 µM).

For `CC(=O)O[C@H]1C(=O)[C@]23C[C@H]2C[C@H]2OC[C@@]2(OC(C)=O)[C@H]3[C@H](OC(=O)c2ccccc2)[C@]2(O)C[C@H](OC(=O)[C@H](OC(=O)OCC(Cl)(Cl)Cl)[C@@H](NC(=O)c3ccccc3)c3ccccc3)C(C)=C1C2(C)C` [Compound 14AA, 2'-{[(2,2,2-Trichloroethyl)oxy]carbonyl}-7-deoxy-7β,8β-methanotaxol], the IC50 in experiment [1] (setting [5]) is over 0.1 µg/mL.

In the case of `CC(=O)O[C@H]1C(=O)[C@]23C[C@H]2C[C@H]2OC[C@@]2(OC(C)=O)[C@H]3[C@H](OC(=O)c2ccccc2)[C@]2(O)C[C@H](OC(=O)[C@H](OC(=O)OCC(Cl)(Cl)Cl)[C@@H](NC(=O)OC(C)(C)C)c3ccccc3)C(C)=C1C2(C)C` [Compound 14DA, N-Debenzoyl-N-(t-butyl)oxycarbonyl-2'-{[(2,2,2-trichloroethyl)oxy]carbonyl}-7-deoxy-7β,8β-methanotaxol], the IC50 in experiment [1] (setting [5]) was found to be 0.012 µg/mL (≈ 0.0119 µM). The same measure, in the same setting: to `CC(=O)O[C@H]1C(=O)[C@]2(C)C=C[C@H]3OC[C@@]3(OC(C)=O)[C@H]2[C@H](OC(=O)c2ccccc2)[C@]2(O)C[C@H](OC(=O)[C@H](OC(=O)OCC(Cl)(Cl)Cl)[C@@H](NC(=O)c3ccccc3)c3ccccc3)C(C)=C1C2(C)C` [Compound 15AA, 2'-{[(2,2,2-Trichloroethyl)oxy]carbonyl)-7-deoxy-Δ^6,7-taxol] belongs 0.012 µg/mL (≈ 0.0119 µM); to `CC(=O)O[C@H]1C(=O)[C@]2(C)C=C[C@H]3OC[C@@]3(OC(C)=O)[C@H]2[C@H](OC(=O)c2ccccc2)[C@]2(O)C[C@H](OC(=O)[C@H](O)[C@@H](NC(=O)c3ccccc3)c3ccccc3)C(C)=C1C2(C)C` [Compound 16A, 7-Deoxy-Δ^6,7-taxol], 0.0042 µg/mL (≈ 0.00502 µM).

Consider `CC(=O)O[C@H]1C(=O)[C@]2(C)C=C[C@H]3OC[C@@]3(OC(C)=O)[C@H]2[C@H](OC(=O)c2ccccc2)[C@]2(O)C[C@H](OC(=O)[C@H](O)[C@@H](NC(=O)OC(C)(C)C)c3ccccc3)C(C)=C1C2(C)C` [Compound 16D, N-Debenzoyl-N-(t-butyl)oxycarbonyl-7-deoxy-Δ^6,7-taxol], for which the IC50 in experiment [1] (setting [6]) worked out at 0.0016 µg/mL (≈ 0.00192 µM). The same measure, in the same setting: for `CC(=O)O[C@H]1C(=O)[C@]2(C)C=C[C@H]3OC[C@@]3(OC(C)=O)[C@H]2[C@H](OC(=O)c2ccccc2)[C@]2(O)C[C@H](OC(=O)[C@H](O)[C@@H](NC(=O)NC(C)(C)C)c3ccccc3)C(C)=C1C2(C)C` [Compound 16F, 13-(N-t-Butylurea-β-phenyl-isoserinyl)-Δ^6,7-baccatin III] the value was 0.0032 µg/mL (≈ 0.00385 µM). For `CC(=O)O[C@H]1C(=O)[C@]2(C)C(F)C[C@H]3OC[C@@]3(OC(C)=O)[C@H]2[C@H](OC(=O)c2ccccc2)[C@]2(O)C[C@H](OC(=O)[C@H](O)[C@@H](NC(=O)OC(C)(C)C)c3ccccc3)C(C)=C1C2(C)C` (stereo partly drawn) [Compound 20, N-Debenzoyl-N-(t-butyl)oxycarbonyl-7-deoxy-7-fluorotaxol], the IC50 in experiment [1] (setting [5]) came to 0.0038 µg/mL (≈ 0.00446 µM).

For the compound `CC(=O)O[C@H]1C(=O)[C@]23C[C@H]2C[C@H]2OC[C@@]2(OC(C)=O)[C@H]3[C@H](OC(=O)c2ccccc2)[C@]2(O)C[C@H](OC(=O)[C@H](O)[C@@H](NC(=O)OC(C)(C)C)c3ccccc3)C(C)=C1C2(C)C` [Compound 23, N-Debenzoyl-N-(t-butyl)oxycarbonyl-7-deoxy-7β,8β-methanotaxol], in experiment [1] (setting [5]), the IC50 stood at 0.0046 µg/mL (≈ 0.00553 µM).

`CC(=O)O[C@H]1C(=O)[C@]2(C)C(F)C[C@H]3OC[C@@]3(OC(C)=O)[C@H]2[C@H](OC(=O)c2ccccc2)[C@]2(O)C[C@H](OC(=O)[C@H](O)[C@@H](NC(=O)c3ccccc3)c3ccccc3)C(C)=C1C2(C)C` (stereo partly drawn) [Compound IIIb, 7-Deoxy-7-fluorotaxol]: in experiment [1] (setting [5]), the IC50 was determined as 0.01 µg/mL (≈ 0.0117 µM). Also, in experiment [2], the “potency in tubulin polymerization assay relative to taxol” value is given as “approximately half as potent as taxol” and the “induction of tubulin polymerization in vitro” value is “able to induce tubulin polymerization in vitro at 20 °C in a manner very similar to taxol”. For the same compound, the IC90 in experiment [3] was 0.016 µg/mL (≈ 0.0187 µM). With `CC(=O)O[C@H]1C(=O)[C@]23C[C@H]2C[C@H]2OC[C@@]2(OC(C)=O)[C@H]3[C@H](OC(=O)c2ccccc2)[C@]2(O)C[C@H](OC(=O)[C@H](O)[C@@H](NC(=O)c3ccccc3)c3ccccc3)C(C)=C1C2(C)C` [Compound IIb, 7-Deoxy-7β,8β-methanotaxol], the IC50 in experiment [1] (setting [5]) was 0.012 µg/mL (≈ 0.0144 µM). In addition, the “induction of tubulin polymerization in vitro” value in experiment [2] was “able to induce tubulin polymerization in vitro at 20 °C in a manner very similar to taxol”. Besides, the IC90 in experiment [4] was 0.025 µg/mL (≈ 0.0299 µM). For `CC(=O)O[C@H]1C(=O)[C@@]2(C)[C@H]([C@H](OC(=O)c3ccccc3)[C@]3(O)C[C@H](OC(=O)[C@H](O)[C@@H](NC(=O)c4ccccc4)c4ccccc4)C(C)=C1C3(C)C)[C@]1(OC(C)=O)CO[C@@H]1C[C@@H]2O` [Taxol], the IC50 in experiment [1] (setting [5]) amounted to 0.015 µg/mL (≈ 0.0176 µM). The IC90 is 0.06 µg/mL (≈ 0.0703 µM) in experiment [4] and 0.007 µg/mL (≈ 0.0082 µM) in experiment [3].

Turning to `CC(=O)O[C@@]12CO[C@@H]1C[C@H](O)[C@@]1(C)C(=O)[C@H](O)C3=C(C)[C@@H](OC(=O)[C@H](O)[C@@H](NC(=O)OC(C)(C)C)c4ccccc4)C[C@@](O)([C@@H](OC(=O)c4ccccc4)[C@H]21)C3(C)C` [Taxotere, reference compound], the IC50 in experiment [1] (setting [5]) was determined as 0.004 µg/mL (≈ 0.00495 µM).

The values are drawn from patent US5556878A, “Δ^6,7 -taxols antineoplatic use and pharmaceutical compositions containing them” (The Upjohn Company, priority 1994, dated 1996).
